Measured values as given in the kinase profiling compilation of Christmann-Franck et al. (2016).

Experiments:
Assay in all cases: Caliper, Mobility shift assay off-chip
[1] = target: SGK1 (human) (UniProt O00141); conditions: compound 10.0 µM
[2] = system: DYRK1A (rat); conditions: compound 10.0 µM; accession and sequence are those of the human protein
[3] = target: PRKDC (human) (UniProt P78527); conditions: compound 10.0 µM
[4] = target: CDC7 (human) (UniProt O00311); conditions: compound 10.0 µM
[5] = target: MARK4 (human) (UniProt Q96L34); conditions: compound 10.0 µM
[6] = target: ERBB2 (human) (UniProt P04626); conditions: compound 10.0 µM
[7] = target: BRAF (human) (UniProt P15056); conditions: compound 10.0 µM
[8] = system: RPS6KB1 (human), P23443 [T412E]; conditions: compound 10.0 µM
[9] = target: NTRK3 (human) (UniProt Q16288); conditions: compound 10.0 µM
[10] = system: MAP2K1 (rabbit); conditions: compound 10.0 µM; accession and sequence are those of the human protein
[11] = target: PBK (human) (UniProt Q96KB5); conditions: compound 10.0 µM
[12] = target: CDK4 (human) (UniProt P11802); conditions: compound 10.0 µM
[13] = system: CSNK1A1 (rat); conditions: compound 10.0 µM; accession and sequence are those of the human protein
[14] = target: CSNK2A1 (human) (UniProt P68400); conditions: compound 10.0 µM
[15] = target: MAP3K14 (human) (UniProt Q99558); conditions: compound 10.0 µM
[16] = target: PRKAA1 (human) (UniProt Q13131); conditions: compound 10.0 µM
[17] = target: MAP3K8 (human) (UniProt P41279); conditions: compound 10.0 µM
[18] = target: AURKC (human) (UniProt Q9UQB9); conditions: compound 10.0 µM
AURKC (human), sequence (Q9UQB9 whole entry, looked up): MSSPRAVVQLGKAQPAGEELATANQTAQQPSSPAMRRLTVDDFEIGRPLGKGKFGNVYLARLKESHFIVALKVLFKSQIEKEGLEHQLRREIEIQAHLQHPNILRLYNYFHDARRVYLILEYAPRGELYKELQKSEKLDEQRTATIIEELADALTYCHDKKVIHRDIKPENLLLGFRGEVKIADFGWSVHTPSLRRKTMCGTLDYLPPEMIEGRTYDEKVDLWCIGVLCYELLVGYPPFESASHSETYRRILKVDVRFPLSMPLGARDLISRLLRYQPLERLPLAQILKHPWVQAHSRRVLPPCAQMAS

[19] = target: PAK1 (human) (UniProt Q13153); conditions: compound 10.0 µM
[20] = system: PHKG1 (rabbit); conditions: compound 10.0 µM; accession and sequence are those of the human protein
[21] = target: CSNK1A1 (human) (UniProt P48729); conditions: compound 1.0 µM
[22] = system: LYN (mouse); conditions: compound 1.0 µM; accession and sequence are those of the human protein
[23] = target: MAPK3 (human) (UniProt P27361); conditions: compound 1.0 µM
[24] = target: PIK3CB (human) (UniProt P42338); conditions: compound 1.0 µM
[25] = target: MYLK (human) (UniProt Q15746); conditions: compound 1.0 µM
[26] = system: ABL1 (mouse); conditions: compound 1.0 µM; accession and sequence are those of the human protein
[27] = system: ABL2 (mouse); conditions: compound 1.0 µM; accession and sequence are those of the human protein
[28] = target: PIK3CD (human) (UniProt O00329); conditions: compound 1.0 µM
[29] = target: PIK3CG (human) (UniProt P48736); conditions: compound 1.0 µM
[30] = target: CSNK1A1 (yeast) (UniProt P48729); conditions: compound 1.0 µM; accession and sequence are those of the human protein
[31] = target: GRK7 (human) (UniProt Q8WTQ7)
GRK7 (human), sequence (Q8WTQ7 whole entry, looked up): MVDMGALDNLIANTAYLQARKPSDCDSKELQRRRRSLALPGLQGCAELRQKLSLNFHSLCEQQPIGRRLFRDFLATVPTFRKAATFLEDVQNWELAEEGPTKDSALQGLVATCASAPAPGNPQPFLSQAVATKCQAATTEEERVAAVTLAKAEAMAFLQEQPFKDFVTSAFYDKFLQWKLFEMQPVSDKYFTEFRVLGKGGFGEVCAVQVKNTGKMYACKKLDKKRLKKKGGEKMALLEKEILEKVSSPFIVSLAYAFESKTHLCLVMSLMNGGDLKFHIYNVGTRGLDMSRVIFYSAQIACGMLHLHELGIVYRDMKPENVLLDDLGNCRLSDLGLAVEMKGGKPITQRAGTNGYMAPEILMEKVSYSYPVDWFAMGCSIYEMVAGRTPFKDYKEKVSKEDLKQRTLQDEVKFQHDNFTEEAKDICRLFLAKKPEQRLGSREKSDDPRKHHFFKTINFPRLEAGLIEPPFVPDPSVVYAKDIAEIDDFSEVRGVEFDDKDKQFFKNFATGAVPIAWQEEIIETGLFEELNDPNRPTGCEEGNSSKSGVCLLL

[32] = target: TAOK1 (human) (UniProt Q7L7X3)
TAOK1 (human), sequence (Q7L7X3 whole entry, looked up): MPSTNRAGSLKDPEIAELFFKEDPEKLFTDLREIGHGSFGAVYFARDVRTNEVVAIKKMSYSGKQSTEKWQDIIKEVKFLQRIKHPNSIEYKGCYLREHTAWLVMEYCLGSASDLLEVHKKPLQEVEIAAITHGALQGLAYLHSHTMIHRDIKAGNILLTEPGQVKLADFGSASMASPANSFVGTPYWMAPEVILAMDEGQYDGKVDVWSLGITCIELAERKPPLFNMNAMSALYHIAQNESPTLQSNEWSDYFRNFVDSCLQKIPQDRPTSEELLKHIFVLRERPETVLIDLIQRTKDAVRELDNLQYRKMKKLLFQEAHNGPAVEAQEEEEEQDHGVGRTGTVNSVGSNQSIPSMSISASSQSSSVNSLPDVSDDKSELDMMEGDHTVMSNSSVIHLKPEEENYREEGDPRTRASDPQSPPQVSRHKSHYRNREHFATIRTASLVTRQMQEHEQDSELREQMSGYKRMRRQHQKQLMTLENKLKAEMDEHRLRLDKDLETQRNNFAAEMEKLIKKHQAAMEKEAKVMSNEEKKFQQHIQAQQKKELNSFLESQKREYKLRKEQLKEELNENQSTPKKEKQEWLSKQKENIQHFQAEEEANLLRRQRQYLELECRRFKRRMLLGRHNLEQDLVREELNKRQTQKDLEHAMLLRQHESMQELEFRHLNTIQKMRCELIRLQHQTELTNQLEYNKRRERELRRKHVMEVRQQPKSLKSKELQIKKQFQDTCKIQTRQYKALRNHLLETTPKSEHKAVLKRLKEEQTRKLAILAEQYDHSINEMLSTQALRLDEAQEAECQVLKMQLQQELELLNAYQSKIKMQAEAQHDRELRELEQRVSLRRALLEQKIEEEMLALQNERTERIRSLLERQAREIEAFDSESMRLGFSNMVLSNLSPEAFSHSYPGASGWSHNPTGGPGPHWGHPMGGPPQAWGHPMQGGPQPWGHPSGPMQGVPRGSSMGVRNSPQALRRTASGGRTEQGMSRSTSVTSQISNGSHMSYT

[33] = system: SRC (human), P12931 [T341M]
[34] = target: CLK2 (human) (UniProt P49760)
CLK2 (human), sequence (P49760 whole entry, looked up): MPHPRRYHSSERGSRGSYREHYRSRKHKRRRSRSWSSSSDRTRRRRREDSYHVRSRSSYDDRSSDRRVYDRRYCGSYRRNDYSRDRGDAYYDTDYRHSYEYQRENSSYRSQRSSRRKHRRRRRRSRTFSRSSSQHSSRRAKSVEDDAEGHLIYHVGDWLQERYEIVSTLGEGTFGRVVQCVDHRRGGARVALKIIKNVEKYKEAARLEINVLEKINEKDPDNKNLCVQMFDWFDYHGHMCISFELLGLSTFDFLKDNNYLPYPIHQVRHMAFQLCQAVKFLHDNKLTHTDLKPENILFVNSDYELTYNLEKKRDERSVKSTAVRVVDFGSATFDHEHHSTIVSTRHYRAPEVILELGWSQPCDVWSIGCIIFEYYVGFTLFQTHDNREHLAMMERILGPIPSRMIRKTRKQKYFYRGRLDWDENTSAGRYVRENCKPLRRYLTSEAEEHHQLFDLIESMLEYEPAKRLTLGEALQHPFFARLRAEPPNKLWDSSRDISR

[35] = system: TEK (human), Q02763 [Y897S]
TEK (human), Q02763 [Y897S], sequence (Q02763 whole entry Y897S, looked up): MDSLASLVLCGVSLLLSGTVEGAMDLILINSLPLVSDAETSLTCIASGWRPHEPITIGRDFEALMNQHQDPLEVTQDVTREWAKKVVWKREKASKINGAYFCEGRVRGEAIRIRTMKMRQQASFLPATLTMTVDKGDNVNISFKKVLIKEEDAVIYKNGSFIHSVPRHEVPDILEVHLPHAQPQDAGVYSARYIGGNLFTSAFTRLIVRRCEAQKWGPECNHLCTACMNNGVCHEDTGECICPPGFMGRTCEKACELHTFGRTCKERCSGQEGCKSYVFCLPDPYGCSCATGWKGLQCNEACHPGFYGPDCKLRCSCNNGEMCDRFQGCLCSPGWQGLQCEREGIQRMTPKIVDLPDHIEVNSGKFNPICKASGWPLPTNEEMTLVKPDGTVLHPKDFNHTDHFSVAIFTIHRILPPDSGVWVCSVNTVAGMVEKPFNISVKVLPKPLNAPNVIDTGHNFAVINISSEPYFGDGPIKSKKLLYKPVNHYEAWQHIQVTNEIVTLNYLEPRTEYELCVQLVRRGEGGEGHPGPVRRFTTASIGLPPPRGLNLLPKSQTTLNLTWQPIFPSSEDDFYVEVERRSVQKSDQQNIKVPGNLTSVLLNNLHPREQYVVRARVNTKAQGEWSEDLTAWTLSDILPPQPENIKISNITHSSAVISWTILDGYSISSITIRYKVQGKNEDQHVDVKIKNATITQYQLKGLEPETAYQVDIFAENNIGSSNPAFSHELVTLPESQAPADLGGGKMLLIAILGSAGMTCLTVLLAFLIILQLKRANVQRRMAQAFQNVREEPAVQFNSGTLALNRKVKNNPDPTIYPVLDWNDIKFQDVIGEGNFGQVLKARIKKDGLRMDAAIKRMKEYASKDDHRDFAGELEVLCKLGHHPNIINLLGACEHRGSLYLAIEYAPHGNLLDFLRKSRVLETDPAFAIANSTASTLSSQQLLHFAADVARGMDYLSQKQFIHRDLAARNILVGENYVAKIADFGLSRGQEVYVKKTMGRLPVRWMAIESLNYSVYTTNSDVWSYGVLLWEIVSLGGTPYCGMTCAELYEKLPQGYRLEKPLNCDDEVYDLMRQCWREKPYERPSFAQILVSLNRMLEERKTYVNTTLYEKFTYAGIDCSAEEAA

[36] = target: ULK2 (human) (UniProt Q8IYT8)
ULK2 (human), sequence (Q8IYT8 whole entry, looked up): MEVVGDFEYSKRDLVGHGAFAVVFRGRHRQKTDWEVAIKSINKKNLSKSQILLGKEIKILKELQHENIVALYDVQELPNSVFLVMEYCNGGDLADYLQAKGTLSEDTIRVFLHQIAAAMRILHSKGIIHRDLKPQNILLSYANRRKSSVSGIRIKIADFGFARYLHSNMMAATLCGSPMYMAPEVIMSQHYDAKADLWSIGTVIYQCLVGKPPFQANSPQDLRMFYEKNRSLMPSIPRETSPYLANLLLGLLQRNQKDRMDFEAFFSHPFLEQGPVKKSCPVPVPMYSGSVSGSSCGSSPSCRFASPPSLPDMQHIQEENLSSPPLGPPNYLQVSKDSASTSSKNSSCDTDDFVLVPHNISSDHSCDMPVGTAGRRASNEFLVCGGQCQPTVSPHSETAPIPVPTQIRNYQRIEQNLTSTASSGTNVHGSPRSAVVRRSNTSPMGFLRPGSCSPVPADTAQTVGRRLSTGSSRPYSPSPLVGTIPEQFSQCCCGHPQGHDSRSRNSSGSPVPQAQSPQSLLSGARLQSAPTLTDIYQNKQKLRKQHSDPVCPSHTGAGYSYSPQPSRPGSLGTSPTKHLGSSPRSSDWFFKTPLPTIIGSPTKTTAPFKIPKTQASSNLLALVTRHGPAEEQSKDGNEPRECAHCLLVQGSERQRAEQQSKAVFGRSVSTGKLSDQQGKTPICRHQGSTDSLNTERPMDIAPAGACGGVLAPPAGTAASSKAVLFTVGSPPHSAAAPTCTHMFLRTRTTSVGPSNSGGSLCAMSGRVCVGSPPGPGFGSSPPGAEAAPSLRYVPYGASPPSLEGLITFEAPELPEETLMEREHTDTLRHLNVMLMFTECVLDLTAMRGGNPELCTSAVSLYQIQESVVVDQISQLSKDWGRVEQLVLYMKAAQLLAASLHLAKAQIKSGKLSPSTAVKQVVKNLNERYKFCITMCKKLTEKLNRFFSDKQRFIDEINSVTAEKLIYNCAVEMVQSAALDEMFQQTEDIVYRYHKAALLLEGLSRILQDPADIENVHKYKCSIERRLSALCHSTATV

[37] = target: TEC (human) (UniProt P42680); conditions: compound 10.0 µM
[38] = target: ULK3 (human) (UniProt Q6PHR2)
ULK3 (human), sequence (Q6PHR2 whole entry, looked up): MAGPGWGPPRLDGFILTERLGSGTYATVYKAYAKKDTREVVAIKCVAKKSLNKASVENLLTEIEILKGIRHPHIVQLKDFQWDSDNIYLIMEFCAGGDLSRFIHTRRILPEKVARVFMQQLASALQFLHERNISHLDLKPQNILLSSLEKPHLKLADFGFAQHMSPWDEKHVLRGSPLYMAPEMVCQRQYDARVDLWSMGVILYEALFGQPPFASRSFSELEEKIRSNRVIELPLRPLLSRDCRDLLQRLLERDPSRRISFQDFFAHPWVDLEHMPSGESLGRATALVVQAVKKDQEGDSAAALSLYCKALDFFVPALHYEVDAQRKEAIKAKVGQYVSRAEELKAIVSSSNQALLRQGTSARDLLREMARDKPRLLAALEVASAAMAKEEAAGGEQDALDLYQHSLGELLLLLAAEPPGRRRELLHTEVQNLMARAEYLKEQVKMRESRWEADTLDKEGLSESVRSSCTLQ

[39] = system: MAP2K4 (mouse); conditions: compound 10.0 µM; accession and sequence are those of the human protein

CC(C)(C)c1nc2c3ccc(F)cc3c3c(=O)[nH]ccc3c2[nH]1
residual activity [1]: 3% | residual activity [2]: 64% | residual activity [3]: 97% | residual activity [4]: 70% | residual activity [5]: 25% | residual activity [6]: 130% | residual activity [7]: 114% | residual activity [8]: 11% | residual activity [9]: 2% | residual activity [10]: 30% | residual activity [11]: 10% | residual activity [12]: 21% | residual activity [13]: 59% | residual activity [14]: 71% | residual activity [15]: 92% | residual activity [16]: 5% | residual activity [17]: 87% | residual activity [18]: 4% | residual activity [19]: 73% | residual activity [20]: 6%

Cc1n[nH]c2c1c(=O)n(CCCN)c1ccc(Cl)cc21
residual activity [21]: 111% | residual activity [22]: 69% | residual activity [23]: 89% | residual activity [24]: 100% | residual activity [25]: 68% | residual activity [26]: 98% | residual activity [27]: 110% | residual activity [28]: 95% | residual activity [29]: 116% | residual activity [30]: 69%

O=C(N[C@@H](COc1ccc2[nH]c(=O)[nH]c2c1)c1ccccc1)c1cccn(Cc2ccc(F)c(F)c2)c1=O
residual activity ([31]; compound 10.0 µM): 108% | residual activity ([32]; compound 10.0 µM): 96% | residual activity ([33]; compound 10.0 µM): 102% | residual activity ([34]; compound 10.0 µM): 100% | residual activity ([35]; compound 10.0 µM): 111% | residual activity ([36]; compound 10.0 µM): 110% | residual activity [37]: 91% | residual activity ([38]; compound 10.0 µM): 99% | residual activity [39]: 112%

C[C@@H](Nc1nc2c(C#CC3CC3)c[nH]c(=O)c2c2cc(-c3cn[nH]c3)ccc12)C(C)(C)C
residual activity ([31]; compound 1.0 µM): 90% | residual activity ([32]; compound 1.0 µM): 95% | residual activity ([33]; compound 1.0 µM): 55% | residual activity ([34]; compound 1.0 µM): 67% | residual activity ([35]; compound 1.0 µM): 82% | residual activity ([36]; compound 1.0 µM): 30% | residual activity ([38]; compound 1.0 µM): 47%
